Entries after “also recorded” stand apart in the source; their conditions may differ.
Assays:
U2OS cells = test: Apo Tox-Glo viability assay, U2OS cells; type: cell-based, human; settings: 5 μM, 3 days
Method: HeLa, U2OS, and MRI90 cells were cultured in the presence of ADAR1 inhibitors, 5 μM or 20 μM, for 3 days. Their viability was examined using the Apo Tox-Glo assay system (Promega), which measures plasma membrane penetration of glycyl-phenyl-alanyl-aminofluorocoumarin peptide. Control, 0.3% DMSO. […] Data are mean±S.D. (n=3, biological replicates).
FIGS. 29A-29D Characterization of Compound #13 effects in cancer cells. […] Viability was examined using the Apo Tox-Glo assay system (Promega). Control, 0.3% DMSO. (FIG. 29B) Western blotting analysis of HeLa cells treated with Compound #13 (10 μM). […] (FIG. 29D) Activation of the IFN signaling pathway. HSC-4 squamous carcinoma cells were treated with Compound #13 at 10 μM (12 hrs). RNA samples were analyzed by qRT-PCR to monitor expression levels of ISGs.

ADAR1p110-E912A = target: T1, ADAR1p110-E912A (Homo sapiens, UniProt P55265, E912A); test: surface plasmon resonance (Biacore T200), ADAR1p110-E912A; type: binding; settings: SPR
T1 sequence (P55265 1-931 isoform P55265-5 E617A): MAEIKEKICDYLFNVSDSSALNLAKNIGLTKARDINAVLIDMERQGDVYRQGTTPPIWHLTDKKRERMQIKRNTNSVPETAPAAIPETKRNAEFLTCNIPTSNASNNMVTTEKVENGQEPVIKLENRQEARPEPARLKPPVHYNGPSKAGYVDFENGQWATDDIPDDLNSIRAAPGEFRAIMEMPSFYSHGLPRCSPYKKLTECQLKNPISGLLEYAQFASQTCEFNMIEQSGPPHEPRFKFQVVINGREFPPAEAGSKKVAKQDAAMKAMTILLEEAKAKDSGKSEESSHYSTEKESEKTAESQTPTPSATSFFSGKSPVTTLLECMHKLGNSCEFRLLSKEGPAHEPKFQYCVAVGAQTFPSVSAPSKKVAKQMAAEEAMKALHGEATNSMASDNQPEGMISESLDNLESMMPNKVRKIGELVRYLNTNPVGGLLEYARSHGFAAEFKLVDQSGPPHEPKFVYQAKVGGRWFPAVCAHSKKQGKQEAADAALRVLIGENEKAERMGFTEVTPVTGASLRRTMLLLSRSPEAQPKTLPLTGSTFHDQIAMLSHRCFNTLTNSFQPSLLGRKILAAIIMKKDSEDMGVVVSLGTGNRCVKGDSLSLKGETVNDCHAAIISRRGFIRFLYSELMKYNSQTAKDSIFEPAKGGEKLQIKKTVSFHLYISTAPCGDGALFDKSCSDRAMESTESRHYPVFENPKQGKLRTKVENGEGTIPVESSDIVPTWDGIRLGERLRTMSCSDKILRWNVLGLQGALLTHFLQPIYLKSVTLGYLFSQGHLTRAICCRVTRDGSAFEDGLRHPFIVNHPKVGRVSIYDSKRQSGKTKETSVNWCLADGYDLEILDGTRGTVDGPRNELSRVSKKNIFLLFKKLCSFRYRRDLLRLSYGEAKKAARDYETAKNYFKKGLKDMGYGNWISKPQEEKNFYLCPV
Description: We synthesized 2 additional analogs of Compound #13 for preliminary structure activity relationships (SAR), namely, #13-Analog 1 and #13-Analog 2 (Table 3). Compound #13-Analog 1 lacks the 4-cyano moiety and #13-Analog 2 shifts the cyano to the 2-position of the phenyl ring. […] We hypothesized that the cyano-phenyl moiety will coordinate with the zinc atom in the active site when bound to ADAR1. We evaluated the ability of Compound #13 to bind to ADAR1 using surface plasmon resonance (SPR) on the Biacore T200. […] We modeled Compound #13 into the ADAR2 active site (56).

N#Cc1ccc(NC(=O)c2sc3ccccc3c2Cl)cc1 [Compound #13, 3-chloro-N-(4-cyanophenyl)-1-benzothiophene-2-carboxamide]
viability of U2OS (ALT) cells (U2OS cells): very little effects
binding to mutant ADAR1p110-E912A (ADAR1p110-E912A): did not bind; also recorded: not to mutant E912A

From patent US20250066864A1, “METHODS FOR IDENTIFYING ADAR1 INHIBITORS, AND COMPOSITIONS AND METHODS OF USE IN TREATING CANCER” (The Wistar Institute of Anatomy and Biology, priority 2021, published 2025)
